Laboratory results reported in publication PMC10577883, “Design and Optimization of Novel Competitive, Non-peptidic, SARS-CoV-2 M^pro Inhibitors” (ACS Medicinal Chemistry Letters, 2023).
Several values for one entry are separate records, joined by “and”; a condition that tells them apart may be missing. Equal values may be shown once.

Assays:
[1] = molecular target: SARS-CoV-2 Mpro (3CLpro) (Severe acute respiratory syndrome coronavirus 2, UniProt P0DTD1); experiment: SARS-CoV-2 recombinant protease enzymatic assay (FRET); type: biochemical; conditions: recombinant Mpro, FRET peptide substrate
[2] = system: SARS-CoV-2-Nluc reporter virus; experiment: microbe, parasite or virus in culture; type: cell-based; conditions: for EC50: Severe acute respiratory syndrome coronavirus 2, VeroE6/TMPRSS2 cells, parentheses denote 95% confidence intervals
[3] = in vitro; conditions: chlorocebus sabaeus
[4] = system: SARS-CoV-2 Mpro; conditions: cited from earlier work
[5] = Rat liver microsome stability assay; conditions: 37 °C
Description: Metabolic Stability Assay
(§1) Liver Microsome Stability Assay Protocol
(§2) Human liver microsomes (HLMs, 20 mg/mL), CD-1 mouse liver microsomes (MLMs, 20 mg/mL), Sprague Dawley
(§3) rat liver microsomes (RLMs, 20 mg/mL) were purchased from Xenotech. NADPH was purchased from Sigma-
(§4) Aldrich and prepared in 10 mM stock solutions of distilled H2O (InvitrogenTM UltraPureTM). Verapamil and
(§5) diphenhydramine were both purchased from Sigma-Aldrich and served as positive controls for LM stability assays.
(§6) Test compounds and positive controls were initially dissolved in DMSO to make 10 mM stock solutions. Sample
(§7) solutions were then further diluted in 100% MeCN to 500 μM. Next, the reactions were prepared by mixing human
(§8) or mouse liver microsomes (55 μL) with potassium phosphate buffer (100 mM, 928 μL) in 1.5 mL Eppendorf tubes.
(§9) The test compounds (6.6 μL of 500 μM solution) were subsequently added to the suspensions, and the reaction
(§10) mixtures were incubated at 37 °C for 5 min. Afterward, the liver microsome reactions were initiated with 110 μL
(§11) of 10 mM NADPH and further incubated at 37 °C for the designated time course of the study. This procedure
(§12) provided experiments with a final volume of 1100 μL (0.6% organic solvent content) and a final test compound
(§13) concentration of 3 μM. Aliquots (100 μL) were removed from each reaction mixture in duplicate at 0, 5, 10, 15,
(§14) and 30 min time intervals and quenched with 100 μL of cold internal standard solution (ISTD, 2 μM
(§15) 7-ethoxy-d 5-coumarin in MeOH or MeCN). Quenched aliquots were then centrifuged at 12,500 g for 5-10 min, and
(§16) the resulting supernatants were withdrawn and placed in LC-MS vials to be analyzed by LC-MS/MS (Agilent
(§17) G6460C QQQ MS coupled with an Infinity II 1260 HPLC). Each test compound was run in tandem with positive and
(§18) negative control experiments for quality assurance. Positive control reactions were conducted at a final volume
(§19) of 550 μL for a single run of each time point. Lastly, the negative control experiment was conducted with test
(§20) compounds and liver microsomes in the absence of NADPH (150 μL) and analyzed at the 30 min time point.
(§21) Data Analysis. Each data point was analyzed in triplicate using in-between blank washes to avoid carry over and
(§22) to equilibrate the column for the subsequent runs. Averages of these triplicates for individual compounds at each
(§23) time point were then normalized to the data at 0 min, representing 100% test compound remaining or 0%
(§24) metabolism. Half-lives (t 1/2) were calculated by plotting ln of % test compound remaining versus time and
(§25) performing linear regression to determine slope.
(§26) Instrumentation and LC-MS/MS Method Development
(§27) LC-MS/MS analyses were conducted on an Agilent 1260 Infinity II HPLC equipped with an Agilent G6460 triple
(§28) quadrupole mass spectrometer (Agilent Technologies, USA). Reverse-phase HPLC separation for each compound
(§29) m) column maintained at 40 °C. The mobile phase used during analyses consisted of either MeOH-H2O (0.1% FA)
(§30) or MeCN-H2O (0.1% FA) at a flow rate of 0.5 mL/min. Each method was developed in the presence of the internal
(§31) standard (ISTD), 7-ethoxy-d 5-coumarin. Precursor and product ion detection was performed with Agilent Jet
(§32) Stream electrospray positive ionization (ESI+) in multiple reaction monitoring (MRM) mode. All MRM transitions,
(§33) MS conditions were as follows: dwell time of 100 ms; gas flow of 10 L/min; nebulizer pressure of 45 psi; delta EMV
(§34) of 200 V. Lastly, all acquired data was processed using Agilent 6460 Quantitative Analysis software.

[6] = Human liver microsome stability assay
Description: Metabolic Stability Assay
as §1, §2, §3, §4, §5, §6, §7, §8, §9, §10, §11, §12, §13, §14, §15, §16, §17, §18, §19, §20, §21, §22, §23, §24, §25, §26, §27, §28, §29, §30, §31, §32, §33, §34

[7] = Mouse liver microsome stability assay
Description: Metabolic Stability Assay
as §1, §2, §3, §4, §5, §6, §7, §8, §9, §10, §11, §12, §13, §14, §15, §16, §17, §18, §19, §20, §21, §22, §23, §24, §25, §26, §27, §28, §29, §30, §31, §32, §33, §34

Cc1nc(C)c(COc2cc(Cl)cc(-n3cc(-c4ccc[nH]c4=O)c(=O)n(-c4cccnc4)c3=O)c2)s1 [Compound 40]
IC50 [1]: 0.016 µM | EC50 [2]: 10.2 µM | CC50 [3]: > 100 µM

N#Cc1ccccc1-c1cc(-c2cccc(Cl)c2)c(=O)n(-c2cccnc2)c1 [Compound 2]
IC50 ([4]; literature value): 9.99 µM | improvement in potency over 1 ([4]; relative to perampanel 1): 10 fold

O=c1[nH]cccc1-c1cn(-c2cc(Cl)cc(OCc3ncsc3C(F)(F)F)c2)c(=O)n(-c2cccnc2)c1=O [Compound 45]
IC50 [1]: 0.012 µM | EC50 range in words [2]: sub-micromolar | EC50 [2]: 0.82 µM | CC50 [3]: > 100 µM | RLM percentage remaining after 30 min ([5]; 3 μM, 30 min): 30.9% | half-life at 3 µM ([5]; Sprague-Dawley, rat, microsomes, RLM t1/2, 3 μM, unit inferred): 18 min | HLM percentage remaining after 30 min ([6]; 3 μM, 37 °C, 30 min): 19.5% and 19.47% | half-life at 3 µM ([6]; human, microsomes): 13 min | remaining at 5 min, 3 µM ([6]; human, microsomes): 84.6% | remaining at 10 min, 3 µM ([6]; human, microsomes): 49.9% | remaining at 0.25 h, 3 µM ([6]; human, microsomes): 48.5% | MLM percentage remaining after 30 min ([7]; 3 μM, 37 °C, 30 min): 14.4% and 14.41% | half-life at 3 µM ([7]; CD-1, mouse, microsomes): 11 min | remaining at 5 min, 3 µM ([7]; CD-1, mouse, microsomes): 54.6% | remaining at 10 min, 3 µM ([7]; CD-1, mouse, microsomes): 43% | remaining at 0.25 h, 3 µM ([7]; CD-1, mouse, microsomes): 20.6%

Cc1scnc1COc1cc(Cl)cc(-n2cc(-c3ccc(=O)[nH]c3)c(=O)n(-c3cccnc3)c2=O)c1 [Compound 51]
IC50 [1]: 0.12 µM | EC50 [2]: > 20 µM | CC50 [3]: > 100 µM
